Like-named read-outs stand apart in the source and are kept apart here.
What was measured:
[1] = test system: chronically HIV-1 infected ACH-2 cells; experiment: Virus expression from chronically HIV-1 infected T cell line ACH-2 (p24 antigen ELISA); assay type: cell-based; details: for effect on virus expression of PMA-stimulated ACH-2 cells (in words): with PMA; for induction of virus expression from ACH-2 cells (in words): without PMA
Experimental: (§1) Effects of suksdorfin analogs on Chronically HIV-1 infected cells. The experimental design is as follows: The phorbol ester, PMA (10^-8 M) and various concentrations of suksdorfin were either added or not added to both the chronically HIV-1 infected T cell line (ACH-2) and to the chronically HIV-1 infected monocytic cell line (U1). Cell-free supernatant was collected 72 hours post culture for p24 antigen ELISA.
Results (Table 11) from adding compound 16 to the chronically HIV-infected T cell line, ACH-2, according to methods in above examples. ACH-2 are a chronically HIV-1 infected T cell line. It was derived from A3.01 cells which is a subclone of the CEM cell line. The data below indicates the following points:
(§2) Chronically HIV-1 infected cell lines. HIV-1 chronically infected T cell line, ACH-2^12, and HIV-1 chronically infected promonocytic cell line, U1 13, were continuously maintained in RPMI 1640 with 10% fetal calf serum (FCS). For experiments, the cell lines were only used in the […] of growth. Cells (0.5×10^6 cells/well) and either various concentrations of suksdorfin or medium alone were added to 24-well plates in the presence or absence of PMA (10^-8 M). After 72 hours at 37° C. and 5% CO2, an aliquot of the cell-free supernatants were collected and analyzed for p24 antigen by ELISA (see below for details of p24 antigen ELISA).

[2] = test system: HIV-1 replication in U937 cells; experiment: HIV-1 replication in acutely infected promonocytic U937 cells; assay type: cell-based, HIV-1 (IIIB); details: for EC50: Human immunodeficiency virus 1, U-937
Experimental: Suksdorfin was also tested on an acute HIV-1 infection of the promonocytic cell line, U937. This was done again to determine drug specificity but this time on a monocytic cell line.
As part of efforts to biologically characterize 16 the monocytic cell line, U937 and peripheral blood mononuclear cells (PBMCs) were separately infected with HIV-1 and then had various concentrations of the analog added for 4 days of culture.
(§3) HIV Growth Inhibition Assay: The T cell line, H9, and the promonocytic cell line, U937, were maintained separately in continuous culture with complete medium (RPMI 1640 and […] fetal calf serum (FCS) at 5% CO2 and 37° C. Cell lines were used in experiments only when in log phase of growth; whereas, uninfected peripheral blood mononuclear cells (PBMCs) were first stimulated with PHA (1 μg/ml) for 3 days. All cell targets were incubated with HIV-1 (IIIB isolate, TCID50 10 ^4 IU/mi, at a multiplicity of infection of 0.1-0.01 IU/cell) for 1 hour at 37° C. and 5% CO2. The cell lines and PBMCs were washed thoroughly to remove unabsorbed virions and resuspended at 4×10^5 cells/ml in complete medium or complete medium with 10% v/v interleukin […] IL-2, respectively. Aliquots ( ml) were placed in wells of 24-well culture plates containing an equal volume of test compound (diluted in the appropriate culture medium). After incubation for 4 days at 37° C., cell density of uninfected cultures was determined by counting cells in a Coulter counter to assess toxicity of the test compound. A p24 antigen ELISA assay was used to determine the level of virus released in the medium of the HIV-infected cultures. The p24 antigen assay uses a HIV-1 anti-p24 specific monoclonal antibody as the capture antibody coated-on 96-well plates. Following a sample incubation period, rabbit serum containing antibodies for HIV-1 p24 is used to tag any p24 "captured" onto the microtiter well surface. Peroxidase conjugated goat anti-rabbit serum is then used to tag HIV-1 p24 specific rabbit antibodies which have complexed with captured p24. […] The cut-off for the p24 ELISA assay is 12. pg/ml. P24 in the culture medium was quantitated against a standard curve containing known amounts of p24. The effective (EC50) and inhibitory (IC50) concentrations (for anti-HIV activity and cytotoxicity, respectively) were determined graphically. Both the EC50 and IC50 values were calculated by plotting drug concentration versus percent inhibition, and then identifying a 50% inhibition value from the graph.

[3] = test system: chronically HIV-1 infected U1 cells; experiment: Virus expression from chronically HIV-1 infected monocytic cell line U1 (p24 antigen ELISA); assay type: cell-based; details: for effect on virus expression of PMA-stimulated U1 cells (in words): with PMA; for induction of virus expression from U1 cells (in words): without PMA
Experimental: as §1
Compound 16 was also assayed on ACH-2 (chronically HIV-1 infected T cell line). U1 cells are also chronically HIV-1 infected cells but they are from the monocytic cell line, U937. The data presented in Table 8 indicates the following points:
as §2

[4] = test system: HIV-1 replication in H9 cells; experiment: HIV-1 replication inhibition in acutely infected H9 lymphocytes (p24 antigen ELISA); assay type: cell-based, HIV-1 (IIIB strain); details: for anti-HIV activity in H9 cells (in words): acutely infected H9 cells
Experimental: HIV inhibition assay. The HIV inhibition was measured as described herein. Briefly, H9 cells, a T cell line, (3.5×10^6 cells/ml) were incubated in the presence or absence of HIV-1 (IIIB strain, 0.01-0.1 TCID50 /cell) for 1 hour at 37° C. Cells were washed thoroughly and resuspended at a final concentration of 2×10^5 cells/ml in the presence or absence of compound. After incubation for 3-4 days at 37° C., the cell density of uninfected cultures was determined by cell count to assess toxicity of the drug. An aliquot of each cell-free supernatant was assayed by p24 antigen ELISA to quantitate the amount of HIV-1 present in the infected cultures. Test compounds were considered to be active at a particular concentration if p24 antigen levels were less than 70% of infected, untreated controls and were nontoxic to uninfected H9 cells.
as §3

CC(=O)O[C@@H]1[C@H](OC(=O)CC(C)C)c2c(ccc3ccc(=O)oc23)OC1(C)C [Suksdorfin, suksdorfin]
P24 ([1]; ACH-2, +PMA, 0.16 μg/ml): 50,775 pg/ml
P24 ([1]; ACH-2, +PMA, 0.8 μg/ml): 55,910 pg/ml
P24 ([1]; ACH-2, +PMA, 4 μg/ml): 61,235 pg/ml
P24 ([1]; ACH-2, +PMA, 20 μg/ml): 49,914 pg/ml
P24 ([1]; ACH-2, -PMA, 0.16 μg/ml): 3,688 pg/ml
P24 ([1]; ACH-2, -PMA, 0.8 μg/ml): 3,821 pg/ml
P24 ([1]; ACH-2, -PMA, 4 μg/ml): 4,723 pg/ml
P24 ([1]; ACH-2, -PMA, 20 μg/ml): 4,541 pg/ml
effect on virus expression of PMA-stimulated ACH-2 cells (in words) [1]: no significant alteration in the level of virus expression
effect on virus expression of PMA-stimulated ACH-2 cells (in words) ([1]; listed as 1): no alteration in the level of virus expression
induction of virus expression from ACH-2 cells (in words) [1]: The answer is no
induction of virus expression from ACH-2 cells (in words) ([1]; listed as 1): no increase in the induction of virus expression
EC50 ([2]; U937 cell line): 0.58 µg/mL
EC50 ([2]; U937 cells): 1500 nM
Therapeutic Index ([2]; U937 cell line, 5760 min): > 34.5
suppression of acute HIV-1 replication in U937 cells (in words) ([2]; U937 cells): can suppress an acute HIV-1 replication
EC50 from U937 cells relative to that for PBMCs ([2]; U937 versus PBMCs): approximately one third
P24 ([3]; U1, +PMA, 0.16 μg/ml): 6,611 pg/ml
P24 ([3]; U1, +PMA, 0.8 μg/ml): 7,360 pg/ml
P24 ([3]; U1, +PMA, 4 μg/ml): 9,728 pg/ml
P24 ([3]; U1, +PMA, 20 μg/ml): 5,096 pg/ml
P24 ([3]; U1, -PMA, 0.16 μg/ml): 0 pg/mL
P24 ([3]; U1, -PMA, 0.8 μg/ml): 0 pg/mL
P24 ([3]; U1, -PMA, 4 μg/ml): 0 pg/mL
P24 ([3]; U1, -PMA, 20 μg/ml): 0 pg/mL
effect on virus expression of PMA-stimulated U1 cells (in words) [3]: no significant alteration in the level of virus expression
effect on virus expression of PMA-stimulated U1 cells (in words) ([3]; listed as 1): no alteration in the level of virus expression
induction of virus expression from U1 cells (in words) [3]: The answer is no
induction of virus expression from U1 cells (in words) ([3]; listed as 1): no increase in the induction of virus expression
EC50 ([4]; Human immunodeficiency virus 1, H9, Table 17, acutely infected H9 lymphocytes, read-out: EC50): 1300 nM
EC50 ([4]; Human immunodeficiency virus 1, H9, acutely infected H9 cells, concentration which inhibits viral replication by 50%, Inactive = No suppression of HIV-1 replication in H9 cells, read-out: EC50): 1300 nM
EC50 ([4]; Human immunodeficiency virus 1, H9, earlier value, read-out: EC50 (value before increase)): 0.5 to 0.8 µg/mL
IC50 ([4]; Human immunodeficiency virus 1, Table 14, concentration which inhibits viral replication by 50%, Inactive = No suppression of HIV-1 replication in H9 cells, read-out: IC50 (μM)^b): 1.3 µM
Therapeutic Index ([4]; IC50 for cell growth inhibition divided by EC50 for HIV inhibition, H9): > 40
Therapeutic Index ([4]; Table 14): > 40.0
Therapeutic Index ([4]; Table 17, H9): > 40
anti-HIV activity in H9 cells (in words) [4]: suppressed virus replication
anti-HIV activity in H9 cells (in words) ([4]; listed as 1): potent anti-HIV-1 activity at nontoxic concentrations

Cc1cn([C@H]2C[C@H](N=[N+]=[N-])[C@@H](CO)O2)c(=O)[nH]c1=O [AZT, azidothymidine, reference compound]
P24 ([1]; Table 11 (ACH-2), +PMA, 0.01 μg/ml): 21,373 pg/ml
P24 ([1]; Table 11 (ACH-2), +PMA, 0.1 μg/ml): 10,621 pg/ml
P24 ([1]; Table 11 (ACH-2), +PMA, 1 μg/ml): 17,088 pg/ml
P24 ([1]; Table 11 (ACH-2), +PMA, 10 μg/ml): 16,584 pg/ml
P24 ([1]; Table 11 (ACH-2), -PMA, 0.01 μg/ml): 796 pg/mL
P24 ([1]; Table 11 (ACH-2), -PMA, 0.1 μg/ml): 942 pg/mL
P24 ([1]; Table 11 (ACH-2), -PMA, 1 μg/ml): 904 pg/mL
P24 ([1]; Table 11 (ACH-2), -PMA, 10 μg/ml): 939 pg/mL
P24 ([3]; U1, +PMA, 0.01 μg/ml): 9626 pg/mL
P24 ([3]; U1, +PMA, 0.1 μg/ml): 4363 pg/mL
P24 ([3]; U1, +PMA, 1 μg/ml): 7898 pg/mL
P24 ([3]; U1, +PMA, 10 μg/ml): 8653 pg/mL
P24 ([3]; U1, -PMA, 0.01 μg/ml): 50 pg/mL
P24 ([3]; U1, -PMA, 0.1 μg/ml): 53 pg/mL
P24 ([3]; U1, -PMA, 1 μg/ml): 72 pg/mL
P24 ([3]; U1, -PMA, 10 μg/ml): 97 pg/mL
EC50 ([4]; Human immunodeficiency virus 1, H9, Table 3, H9 lymphocytes): 40 nM
EC50 ([4]; Human immunodeficiency virus 1, H9, Table 17, acutely infected H9 lymphocytes): 150 nM
Therapeutic Index ([4]; Table 3, H9 lymphocytes): 50,000
Therapeutic Index ([4]; Table 17, H9): 12,500

Reference: patent publication US6319929A, “Suksdorfin analogs, compositions thereof, and methods for making and using thereof” (priority 1998, dated 2001)
